Data taken from the NIST ThermoML archive (doi:10.1021/je200757a).
± gives the expanded uncertainty stated by the source.

Experiments:
[1] = xn = mol fraction of the nth substance listed; conditions: for surface tension liquid-gas: Capillary rise; for viscosity / mass density: 101 kPa, Liquid; for viscosity: Capillary tube (Ostwald / Ubbelohde) method; for mass density: Vibrating tube method
[2] = refractive index (Na D-line) (dimensionless); xn = mol fraction of the nth substance listed; conditions: 101 kPa, Liquid

C1C[C@@H]2[C@H]3CC[C@H](C3)[C@@H]2C1 [exo-tetrahydrodicyclopentadiene] + CCCCCCCCC
Conditions | mass density, [1] [kg/m3] | refractive index, [2] | surface tension liquid-gas, [1] [mN/m] | viscosity, [1] [mPa·s]
293.15 K, x2 = 0 | 935.3 ± 0.8 | 1.4877 ± 0.0013 | 31.86 ± 0.38 | 3.077 ± 0.035
293.15 K, x2 = 0.1089 | 907.6 ± 0.7 | 1.4777 ± 0.0013 | 30.17 ± 0.35 | 2.455 ± 0.027
293.15 K, x2 = 0.2212 | 880.1 ± 0.6 | 1.4667 ± 0.0013 | 27.92 ± 0.33 | 2.005 ± 0.021
293.15 K, x2 = 0.3244 | 855.8 ± 0.5 | 1.457 ± 0.0013 | 27.12 ± 0.31 | 1.683 ± 0.017
293.15 K, x2 = 0.4159 | 835.1 ± 0.5 | 1.45 ± 0.0013 | 26.34 ± 0.3 | 1.459 ± 0.014
293.15 K, x2 = 0.5099 | 814.5 ± 0.4 | 1.4422 ± 0.0013 | 25.59 ± 0.28 | 1.277 ± 0.012
293.15 K, x2 = 0.6161 | 792 ± 0.4 | 1.4332 ± 0.0013 | 24.35 ± 0.27 | 1.109 ± 0.01
293.15 K, x2 = 0.7128 | 772.3 ± 0.3 | 1.426 ± 0.0013 | 23.84 ± 0.26 | 0.985 ± 0.009
293.15 K, x2 = 0.8078 | 753.7 ± 0.3 | 1.4192 ± 0.0013 | 23.14 ± 0.25 | 0.887 ± 0.008
293.15 K, x2 = 0.9133 | 733.7 ± 0.3 | 1.4114 ± 0.0013 | 22.6 ± 0.24 | 0.795 ± 0.007
298.15 K, x2 = 0 | 931.4 ± 0.8 | – | – | 2.784 ± 0.032
298.15 K, x2 = 0.1089 | 903.7 ± 0.7 | – | – | 2.229 ± 0.025
298.15 K, x2 = 0.2212 | 876.2 ± 0.6 | – | – | 1.836 ± 0.02
298.15 K, x2 = 0.3244 | 851.9 ± 0.5 | – | – | 1.545 ± 0.016
298.15 K, x2 = 0.4159 | 831.2 ± 0.4 | – | – | 1.344 ± 0.013
298.15 K, x2 = 0.5099 | 810.6 ± 0.4 | – | – | 1.176 ± 0.011
298.15 K, x2 = 0.6161 | 788.1 ± 0.4 | – | – | 1.028 ± 0.01
298.15 K, x2 = 0.7128 | 768.4 ± 0.3 | – | – | 0.917 ± 0.008
298.15 K, x2 = 0.8078 | 749.8 ± 0.3 | – | – | 0.827 ± 0.007
298.15 K, x2 = 0.9133 | 729.8 ± 0.3 | – | – | 0.744 ± 0.006
303.15 K, x2 = 0 | 927.5 ± 0.8 | 1.4832 ± 0.0013 | 31.09 ± 0.38 | 2.525 ± 0.029
303.15 K, x2 = 0.1089 | 899.8 ± 0.7 | 1.4728 ± 0.0013 | 29.01 ± 0.35 | 2.04 ± 0.023
303.15 K, x2 = 0.2212 | 872.3 ± 0.6 | 1.4627 ± 0.0013 | 27.45 ± 0.32 | 1.687 ± 0.018
303.15 K, x2 = 0.3244 | 848 ± 0.5 | 1.4517 ± 0.0013 | 26.63 ± 0.31 | 1.426 ± 0.015
303.15 K, x2 = 0.4159 | 827.2 ± 0.4 | 1.445 ± 0.0013 | 25.74 ± 0.29 | 1.244 ± 0.012
303.15 K, x2 = 0.5099 | 806.6 ± 0.4 | 1.4377 ± 0.0013 | 24.86 ± 0.28 | 1.091 ± 0.011
303.15 K, x2 = 0.6161 | 784.2 ± 0.4 | 1.4282 ± 0.0013 | 23.36 ± 0.26 | 0.958 ± 0.009
303.15 K, x2 = 0.7128 | 764.5 ± 0.3 | 1.421 ± 0.0013 | 22.88 ± 0.26 | 0.856 ± 0.008
303.15 K, x2 = 0.8078 | 745.9 ± 0.3 | 1.4139 ± 0.0013 | 22.39 ± 0.25 | 0.775 ± 0.007
303.15 K, x2 = 0.9133 | 725.9 ± 0.3 | 1.4062 ± 0.0013 | 21.81 ± 0.24 | 0.699 ± 0.006
313.15 K, x2 = 0 | 919.6 ± 0.7 | – | – | 2.112 ± 0.024
313.15 K, x2 = 0.1089 | 891.9 ± 0.7 | – | – | 1.728 ± 0.019
313.15 K, x2 = 0.2212 | 864.4 ± 0.6 | – | – | 1.441 ± 0.015
313.15 K, x2 = 0.3244 | 840.1 ± 0.5 | – | – | 1.227 ± 0.013
313.15 K, x2 = 0.4159 | 819.4 ± 0.4 | – | – | 1.077 ± 0.011
313.15 K, x2 = 0.5099 | 798.8 ± 0.4 | – | – | 0.951 ± 0.009
313.15 K, x2 = 0.6161 | 776.3 ± 0.4 | – | – | 0.839 ± 0.008
313.15 K, x2 = 0.7128 | 756.7 ± 0.3 | – | – | 0.754 ± 0.007
313.15 K, x2 = 0.8078 | 738 ± 0.3 | – | – | 0.686 ± 0.006
313.15 K, x2 = 0.9133 | 718.1 ± 0.3 | – | – | 0.622 ± 0.005
